In ChEMBL document CHEMBL1649573, “Protein kinase G is required for intrinsic antibiotic resistance in mycobacteria” (2009):
≈ marks a conversion by molar mass, not a printed value.

These compounds were tested on Mycolicibacterium smegmatis (assay: Antimycobacterial activity against PknGMsm-deficient Mycobacterium smegmatis harboring PknG Mtb gene by Etest method).
Assay type: functional
CC[C@H]1OC(=O)[C@H](C)[C@@H](O[C@H]2C[C@@](C)(OC)[C@@H](O)[C@H](C)O2)[C@H](C)[C@@H](O[C@@H]2O[C@H](C)C[C@H](N(C)C)[C@H]2O)[C@](C)(O)C[C@@H](C)C(=O)[C@H](C)[C@@H](O)[C@]1(C)O [ERYTHROMYCIN] gave an MIC of 32 µg/mL (≈ 43.6 µM).
In the case of CC[C@@H](CO)NCCN[C@@H](CC)CO [ETHAMBUTOL], the MIC is reported as 0.25 µg/mL (≈ 1.22 µM).
C[C@@H](O)[C@H]1C(=O)N2C(C(=O)O)=C(SCCNC=N)C[C@H]12 [IMIPENEM ANHYDROUS] was tested, and the MIC was 6 µg/mL (≈ 20 µM).
CO[C@H]1/C=C/O[C@@]2(C)Oc3c(C)c(O)c4c(O)c(c(/C=N/N5CCN(C)CC5)c(O)c4c3C2=O)NC(=O)/C(C)=C\C=C\[C@H](C)[C@H](O)[C@@H](C)[C@@H](O)[C@@H](C)[C@H](OC(C)=O)[C@@H]1C [RIFAMPIN] gave an MIC greater than 32 µg/mL.
Compound CN[C@H](CC(C)C)C(=O)N[C@H]1C(=O)N[C@@H](CC(N)=O)C(=O)N[C@H]2C(=O)N[C@H]3C(=O)N[C@H](C(=O)N[C@H](C(=O)O)c4cc(O)cc(O)c4-c4cc3ccc4O)[C@H](O)c3ccc(c(Cl)c3)Oc3cc2cc(c3O[C@@H]2O[C@H](CO)[C@@H](O)[C@H](O)[C@H]2O[C@H]2C[C@](C)(N)[C@H](O)[C@H](C)O2)Oc2ccc(cc2Cl)[C@H]1O [VANCOMYCIN] has an MIC of 48 µg/mL (≈ 33.1 µM).
